Experimental data reported in US20250032676A1, “3D HYDROGEL COMPOSITE HAVING CANCER CELL APOPTOTIC EFFECT AND PREPARATION METHOD THEREOF” (DONGGUK UNIVERSITY INDUSTRY-ACADEMIC COOPERATION FOUNDATION, priority 2022, published 2025).

Test system: MDA-MB-231 breast cancer cells
Experiment: Cell killing by 6-MP released from hydrogel versus 6-MP at same concentration, WST-1 assay
Assay type: cell-based
Conditions: 24 h treatment, same 6-MP concentration; FIG. 12
Description: The apoptotic effect resulting from the release of anticancer agents was confirmed by comparing the effects of anticancer agents released due to chemical bond cleavage during photoirradiation with that of anticancer agents at the same concentration.
The three-dimensional hydrogels prepared according to Examples 1 to 3 to have a diameter of 8 mm and a height of 2 mm were stored together with 1 mL of PBS at 37° C. and 100 RPM. MDA-MB-231 breast cancer cells were inoculated at a density of 4×10^4 cells per well on a 48-well plate prepared with DMEM supplemented with 10% FBS and 1% penicillin/streptomycin and cultured at 37° C. for one day. After removal of the existing medium, cancer cells were treated with 50 μL of fresh medium and 150 μL of PBS containing released 6-MP, and incubated at 37° C. for 24 h. For the WST-1 assay, the cells were washed with PBS, treated with EZ-Cytox solution in each experimental group, incubated at 37° C. for 2 hours, and then measured by absorbance at 450 nm to confirm the cell apoptosis effect.

SMILES	breast cancer cells died / killed [%]
Sc1ncnc2nc[nH]c12 [6-MP, 6-mercaptopurine]	21
S=c1nc[nH]c2nc[nH]c12	70
